Literature values as cited in US20040091555A1 (priority 2003, published 2004).

System: hepatocellular carcinoma
Details: phase II clinical trials, patients with hepatocellular carcinoma

For `CC(=O)O[C@H]1C(=O)[C@@]2(C)[C@H]([C@H](OC(=O)c3ccccc3)[C@]3(O)C[C@H](OC(=O)[C@H](O)[C@@H](NC(=O)c4ccccc4)c4ccccc4)C(C)=C1C3(C)C)[C@]1(OC(C)=O)CO[C@@H]1C[C@@H]2O` [paclitaxel], the “efficacy on hepatocellular carcinoma” value is listed as “no significant efficacy on hepatocellular carcinoma”.
